Test system: not listed separately
Experiment: Microsomal stability in mouse liver microsomes (MLM)
Format: in vitro ADME
Details: half-life in mouse liver microsomes
Description: A first pharmacokinetic study was performed in microsomes of mice mouse liver microsomes, MLM) by a commercial contract research organization. The studies were performed according to Obach, R. S et al. (1997) J. Pharmacol. Exp. Ther., 283: 46-58, which is incorporated herein by reference.

SMILES | Mouse liver microsomes, MLM t½ [min]
COc1cc(CC[C@@H](C)N2Cc3cc4c(cc3C2)OCO4)ccc1O [compound 6] | 20
COc1cc2c(cc1OC)CN([C@H](C)CCc1ccc(Cl)c(Cl)c1)C2 [compound 11] | 61

Same assay, conditions: mouse, microsomes

SMILES | Mouse liver microsomes, MLM t½ [min]
C[C@H](CCc1ccc(O)c(OC(C)(C)C)c1)N1Cc2c(F)ccc(F)c2C1 [60A] | 5
C[C@H](CCc1ccc(O)c(OC(C)(C)C)c1)N1Cc2cccc(F)c2C1 [60B] | 8
COc1cc(CC[C@@H](C)N2Cc3ccc(Cl)cc3C2)ccc1O [compound 1] | 11
COc1cc(CC[C@@H](C)N2Cc3ccc(C(F)(F)F)cc3C2)ccc1O [compound 2] | 28
COc1cc(CC[C@@H](C)N2Cc3cc(Cl)c(Cl)cc3C2)ccc1O [compound 3] | 21
C[C@H](CCc1ccc(Cl)c(Cl)c1)N1Cc2ccc(C(F)(F)F)cc2C1 [compound 4] | 40
C[C@H](CCc1ccc(Cl)c(Cl)c1)N1Cc2cc(Cl)c(Cl)cc2C1 [compound 5] | 53
COc1cc(CC[C@@H](C)N2Cc3cccc(F)c3C2)ccc1O [compound 8] | 16
C[C@H](CCc1ccc(Cl)c(Cl)c1)N1Cc2cccc(F)c2C1 [compound 9] | 12
C[C@H](CCc1ccc(Cl)c(Cl)c1)N1Cc2cc3c(cc2C1)OCO3 [compound 10] | 8
C[C@H](CCc1ccc(Cl)c(Cl)c1)N1Cc2ccc(F)cc2C1.Cl [compound 12] | 13
Cc1ccc2c(c1)CN([C@H](C)CCc1ccc(Cl)c(Cl)c1)C2 [compound 13] | 3
COc1ccc2c(c1)CN([C@H](C)CCc1ccc(Cl)c(Cl)c1)C2.Cl [compound 15] | 15
C[C@H](CCc1ccc(Cl)c(Cl)c1)N1Cc2cccc(Cl)c2C1.Cl [compound 16] | 12
COc1cc(CCC(C)N2Cc3ccc4ccccc4c3C2)ccc1O.Cl (stereo not drawn) [compound 17] | 10
C[C@H](CCc1ccc(Cl)c(Cl)c1)N1Cc2ccc3ccccc3c2C1 [compound 19] | 25
COc1cc2c(cc1OC)CN([C@@H](C)CCc1ccc(Cl)c(Cl)c1)C2 [compound 20] | 43
C[C@H](CCc1ccc(F)cc1)N1Cc2cccc(F)c2C1 [compound 21] | 7
C[C@H](CCc1ccc(F)cc1)N1Cc2ccc(F)cc2C1 [compound 22] | 7
C[C@H](CCc1ccc(F)cc1)N1Cc2cc3c(cc2C1)OCO3 [compound 23] | 5
C[C@H](CCc1ccc(O)c(OC(F)(F)F)c1)N1Cc2cc3c(cc2C1)OCO3 [compound 24] | 5
CC(C)Oc1cc(CC[C@@H](C)N2Cc3cccc(F)c3C2)ccc1O [compound 26] | 4

SMILES | Mouse liver microsomes, MLM t½ [min]
CC(C)Oc1cc(CCC(C)(C)N2Cc3cccc(F)c3C2)ccc1O [compound 28] | 4
C[C@H](CCc1ccc(O)c(OC(F)(F)F)c1)N1Cc2ccc(F)cc2C1 [compound 31] | 6
CC(C)(CCc1ccc(F)cc1)N1Cc2cccc(F)c2C1 [compound 33] | 9
COc1cc2c(cc1OC)CN(C(C)(C)CCc1ccc(F)cc1)C2 [compound 34] | 46
CC(C)(CCc1ccc(F)cc1)N1Cc2ccc(F)cc2C1 [compound 35] | 9
CC(C)(CCc1ccc(F)cc1)N1Cc2cc3c(cc2C1)OCO3 [compound 36] | 47
CC(C)Oc1cc(CC[C@@H](C)N2Cc3ccc(F)cc3C2)ccc1O [compound 37] | 5
CC(C)Oc1ccc(CC[C@@H](C)N2Cc3cc4c(cc3C2)OCO4)cc1OC(C)C [compound 40] | 6
CC(C)Oc1ccc(CCC(C)(C)N2Cc3ccc(F)cc3C2)cc1OC(C)C [compound 42] | 14
C[C@H](CCc1ccc(OC(=O)N(C)C)c(OC(F)(F)F)c1)N1Cc2ccc(F)cc2C1 [compound 43] | 5
COc1cc(CCC(C)(C)N2Cc3cccc(F)c3C2)ccc1OCCO [compound 44] | 29
COc1cc(CCC(C)(C)N2Cc3ccc(F)cc3C2)ccc1OCCO [compound 45] | 96
COC[C@H](CCc1ccc(Cl)c(Cl)c1)N1Cc2ccc(F)cc2C1 [compound 46] | 5
COc1cc(CCC(C)(C)N2Cc3cc4c(cc3C2)OCO4)ccc1OCCO [compound 47] | 91
COc1cc(CCC(C)(C)N2Cc3ccc(F)cc3C2)ccc1OC(=O)N(C)C [compound 50] | 33
COc1cc(CC[C@@H](C)N2Cc3cccc(F)c3C2)ccc1OCCO [compound 51] | 66
COc1cc(CC[C@@H](C)N2Cc3cc4c(cc3C2)OCO4)ccc1OCCO [compound 52] | 97
COc1cc(CCC(C)(C)N2Cc3cccc(F)c3C2)ccc1O [compound 53] | 21
CC(C)(CCc1ccc(O)c(OC(F)(F)F)c1)N1Cc2cccc(F)c2C1 [compound 54] | 12
CC(C)(CCc1ccc(O)c(OC(F)(F)F)c1)N1Cc2c(F)ccc(F)c2C1 [compound 55] | 34
CN(C)C(=O)c1cccc2c1CN(C(C)(C)CCc1ccc(O)c(OC(F)(F)F)c1)C2 [compound 57] | 26
CN(C)C(=O)c1cccc2c1CN(C(C)(C)CCc1ccc(O)c(OC(C)(C)C)c1)C2 [compound 59] | 8

SMILES | Mouse liver microsomes, MLM t½ [min]
CC(C)(C)Oc1cc(CCC(C)(C)N2Cc3ccc(S(C)(=O)=O)cc3C2)ccc1O [compound 62] | 45
C[C@H](CCc1ccc(O)c(OC(C)(C)C)c1)N1Cc2ccc(S(C)(=O)=O)cc2C1 [compound 63] | 31
COc1cc(CCC(C)(C)N2Cc3cccc(S(C)(=O)=O)c3C2)ccc1O [compound 64] | 52
COc1cc(CC[C@@H](C)N2Cc3cccc(S(C)(=O)=O)c3C2)ccc1O [compound 65] | 41
CC(C)(C)Oc1cc(CCC(C)(C)N2Cc3cccc(S(C)(=O)=O)c3C2)ccc1O [compound 66] | 10
CC(C)(CCc1ccc(O)c(OC(F)(F)F)c1)N1Cc2cccc(S(C)(=O)=O)c2C1 [compound 67] | 39
CC(C)Oc1cc(CC[C@@H](C)N2Cc3ccc(S(C)(=O)=O)cc3C2)ccc1O [compound 69] | 75
CC(C)Oc1cc(CCC(C)(C)N2Cc3ccc(S(C)(=O)=O)cc3C2)ccc1O [compound 70] | 79
CC(C)(C)Oc1cc(CCC(C)(C)N2Cc3c(F)ccc(F)c3C2)ccc1O [compound 74] | 21
COc1cc(CCC(C)(C)N2Cc3cccc(C(=O)NCCN(C)C)c3C2)ccc1O [compound 78] | 450
COc1cc(CCC(C)(C)N2Cc3cccc(C(=O)N4CCOCC4)c3C2)ccc1O [compound 80] | 45
COc1cc(CCC(C)(C)N2Cc3cccc(C(=O)N(C)CCN(C)C)c3C2)ccc1O [compound 81] | 88
COc1cc(CCC(C)(C)N2Cc3cccc(C(=O)N4CCN(C)CC4)c3C2)ccc1O [compound 82] | 27
COCCN(C)C(=O)c1cccc2c1CN(C(C)(C)CCc1ccc(O)c(OC)c1)C2 [compound 86] | 19
CC(C)COc1cc(CCC(C)(C)N2Cc3ccc(S(C)(=O)=O)cc3C2)ccc1O [compound 87] | 86
CC(C)COc1cc(CCC(C)(C)N2Cc3cccc(F)c3C2)ccc1O [compound 88] | 28
CC(C)COc1cc(CCC(C)(C)N2Cc3cccc(C(=O)N(C)C)c3C2)ccc1O [compound 89] | 17
CC(C)COc1cc(CCC(C)(C)N2Cc3cccc(C(=O)N4CCOCC4)c3C2)ccc1O [compound 90] | 9
CC(C)COc1cc(CCC(C)(C)N2Cc3cccc(C(=O)N4CCN(C)CC4)c3C2)ccc1O [compound 91] | 6
CC(=O)N1CCN(C(=O)c2cccc3c2CN(C(C)(C)CCc2ccc(O)c(OCC(C)C)c2)C3)CC1 [compound 92] | 7
CN1CCN(C(=O)c2cccc3c2CN(C(C)(C)CCc2ccc(O)c(OC(F)(F)F)c2)C3)CC1 [compound 93] | 5
CC(C)(CCc1ccc(O)c(OC(F)(F)F)c1)N1Cc2cccc(C(=O)N3CCOCC3)c2C1 [compound 94] | 14

Test system: Abeta oligomer-induced synapse loss in primary hippocampal neurons
Experiment: Abeta 1-42 oligomer synapse loss assay
Format: cell-based, rat
Details: Abeta 42 oligomers
Description: In this assay, Abeta oligomers are brought in contact with mature primary neurons in culture and their binding was determined by immunohistochemistry (anti-Abeta antibody) and quantified by image processing. The amount of Abeta in neuronal dendrites is assessed by counting the number of labeled puncta on the neuritis. […] This labeling is associated with synapses, co-localizing with the post-synaptic scaffold protein PSD-95 (Lacor et al., '04). […] The number of synapses can also be quantified in this assay by immunofluorochemistry.
Primary hippocampal neuronal culture is established as in the membrane trafficking assay above. […] Pretreatment with test compounds for 1 hr and addition of Abeta oligomers or no oligomer (vehicle alone) is followed by incubation for an additional 23 hrs.
The plates are then washed 3× with PBS for 5 min each. The plates are blocked at RT for 1 hr in 5% goat serum and 0.5% Triton X-100 in PBS. Primary antibodies (anti-MAP 2 polyclonal, Millipore # AB5622 and anti-Beta Amyloid 6E10 monoclonal, Covance # SIG-39300, at 1 microgram/ml, and rabbit polyclonal anti-synaptophysin, Anaspec, at 0.2 microgram/ml) were diluted 1:1000 in 5% goat serum with PBS. Primary antibodies are incubated overnight at 4° C. The plates are then washed 3× with PBS for 5 min each. Secondary antibodies (Alex Flor 488 polyclonal, Invitrogen # A11008 and Alexa Flor 647 monoclonal, Invitrogen # A21235) are diluted 1:1000 in 5% goat serum with PBS. Secondary antibodies are incubated at RT for 1 hr. The plates are washed once with PBS. DAPI (4′,6-diamidino-2-phenylindole, Invitrogen) is then applied at 0.03 ug/ul and incubated at RT for 5 min, then washed with PBS.

SMILES | elimination of Abeta oligomer-induced synapse loss | recovery of synapse loss [%]
CCCN(CCC)CCc1ccc(OC)c(OCCc2ccccc2)c1 [NE-100] | completely eliminated synapse loss | 
CCC(Oc1ccc(Cl)cc1)C(=O)OC1CC2CCC(C1)N2C (stereo not drawn) [SM-21] | only weakly active in eliminating synapse loss | 20
O=C(CCCN1CCC(O)(c2ccc(Cl)cc2)CC1)c1ccc(F)cc1 [haloperidol] | completely eliminated synapse loss | 

Source: patent US10611728B2, “Isoindoline compositions and methods for treating neurodegenerative disease” (priority 2014, dated 2020)
